Laboratory results as given in patent US10167257B2, “Indole derivatives for use in medicine” (IOmet Pharma Ltd., priority 2014, dated 2019).

Tests used:
[1] = molecular target: T1, TDO (A172 cells) (Homo sapiens, UniProt P48775); assay: TDO cell-based assay (A172), kynurenine production; conditions: A172 human glioblastoma cells, 500 μM L-Trp, 48 h, kynurenine by absorbance at 490 nm
T1 construct: This assay utilised cancer cells which expressed either TDO or IDO; host or cells: A172 human glioblastoma cells
T1 sequence (P48775 whole entry): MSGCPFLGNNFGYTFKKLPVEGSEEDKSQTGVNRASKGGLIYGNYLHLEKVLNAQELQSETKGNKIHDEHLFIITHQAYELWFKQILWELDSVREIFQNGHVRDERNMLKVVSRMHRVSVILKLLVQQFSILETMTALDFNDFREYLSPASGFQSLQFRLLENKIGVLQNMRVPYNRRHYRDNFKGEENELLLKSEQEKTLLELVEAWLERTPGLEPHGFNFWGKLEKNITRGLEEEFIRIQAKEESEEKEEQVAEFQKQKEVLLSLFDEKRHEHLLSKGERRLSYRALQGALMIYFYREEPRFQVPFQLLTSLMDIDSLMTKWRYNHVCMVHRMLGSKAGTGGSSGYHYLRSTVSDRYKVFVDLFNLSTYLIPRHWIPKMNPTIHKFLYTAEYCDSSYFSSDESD
Source text: (§1) Two different types of assay were employed: 1. A TDO and IDO biochemical coupled assay which utilised recombinantly produced and purified TDO and IDO enzymes in combination with the enzyme formamidase. This coupled enzyme system allowed conversion of N-formylkynurenine produced by TDO or IDO activity to kynurenine which was then quantified by fluorescence following addition of Erhlich's Reagent. 2. A cell-based assay for detecting the effect of test compounds on kynurenine production in two different cancer cell types. This assay utilised cancer cells which expressed either TDO or IDO and as such was used as a means of testing compound activity at these two enzymes in a cell-based context. The protocols for these are set out below.
(§2) A172 human glioblastoma (ATCC) were grown in DMEM+2 mM L-glutamine medium supplemented with 10% foetal bovine serum and SKOV-3 ovary adenocarcinoma (ATCC) cells were grown in McCoys 5A+L-glutamax medium supplemented with 15% foetal bovine serum. On the day of assay, cells were detached using trypsin-EDTA (0.25% v/v), re-suspended in assay media (RPMI 1640 phenol red free+L-glutamine supplemented with 10% dialysed foetal bovine serum). A172 cells were seeded at 30K cells per well and SKOV-3 cells at 40K cells per well into 96-well plates containing test samples/vehicle control together with 500 μM L-Trp. Cells were then incubated for 48 h at 37° C., 5% CO2. In SK-OV-3 cells, IFNγ was also added at 500 ng/ml for the 48 h incubation in order to induce expression of IDO. Plates were centrifuged and the supernatant was removed and incubated for 5 min in the presence of 1% Erhlich's reagent. Kynurenine levels were then quantified by measuring absorbance at 490 nm.

[2] = molecular target: T2, IDO (SKOV-3 cells) (Homo sapiens, UniProt P14902); assay: IDO cell-based assay (SKOV-3, IFNγ-induced), kynurenine production; conditions: SKOV-3 ovary adenocarcinoma cells, IFNγ 500 ng/ml, 500 μM L-Trp, 48 h, kynurenine by absorbance at 490 nm
T2 construct: This assay utilised cancer cells which expressed either TDO or IDO; host or cells: SKOV-3 ovary adenocarcinoma cells, IFNγ-induced
T2 sequence (P14902 whole entry): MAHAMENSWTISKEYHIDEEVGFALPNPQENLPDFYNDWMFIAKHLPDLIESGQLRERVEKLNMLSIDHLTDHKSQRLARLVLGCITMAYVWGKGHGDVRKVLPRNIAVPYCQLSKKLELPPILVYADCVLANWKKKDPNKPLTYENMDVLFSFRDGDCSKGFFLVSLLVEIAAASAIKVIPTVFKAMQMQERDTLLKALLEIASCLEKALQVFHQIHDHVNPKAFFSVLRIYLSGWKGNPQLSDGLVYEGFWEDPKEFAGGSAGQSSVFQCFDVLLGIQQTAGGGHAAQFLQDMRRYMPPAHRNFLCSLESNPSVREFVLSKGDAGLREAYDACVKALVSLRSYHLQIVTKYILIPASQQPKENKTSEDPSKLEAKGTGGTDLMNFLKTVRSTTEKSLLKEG
Source text: as §1, §2

| Structure (SMILES) | TDO cellular assay (A172) pIC50 [1] | IDO cellular assay (SKOV3) pIC50 [2] |
| --- | --- | --- |
| O=C(NC1CCc2ccccc21)c1cc2ccccc2[nH]1 (stereo not drawn) [Compound 6] | + (+ = pIC50 4.50-<5.00) | + (+ = pIC50 4.50-<5.00) |
| CC(CN(C)S(C)(=O)=O)NC(=O)c1cc2cc(Cl)ccc2[nH]1 (stereo not drawn) [Compound 154] | − (− = pIC50 <4.50) | + (+ = pIC50 4.50-<5.00) |
| CC(NC(=O)c1cc2cnccc2[nH]1)c1ccccc1 (stereo not drawn) [Compound 79] | − (− = pIC50 <4.50) | + (+ = pIC50 4.50-<5.00) |
| Cc1nc(C(C)NC(=O)c2cc3cc(C#N)ccc3[nH]2)co1 (stereo not drawn) [Compound 222] | − (− = pIC50 <4.50) | ++ (++ = pIC50 5.00-<5.50) |
| CC(=O)N1CCC(C2(NC(=O)c3cc4cc(Cl)ccc4[nH]3)CC2)CC1 [Compound 160] | − (− = pIC50 <4.50) | +++ (+++ = pIC50 ≥5.50) |
| O=C(NC1(c2ccccc2)CC1)C1Cc2cc(Cl)ccc2N1 (stereo not drawn) [Compound 246] | + (+ = pIC50 4.50-<5.00) | +++ (+++ = pIC50 ≥5.50) |
| CC(NC(=O)c1cc2cc(Cl)ccc2[nH]1)c1cnn(C(C)C)c1 (stereo not drawn) [Compound 135] | − (− = pIC50 <4.50) | +++ (+++ = pIC50 ≥5.50) |
| Cc1ccc2[nH]c(C(=O)NC(C)c3cccc(F)c3)cc2c1 (stereo not drawn) [Compound 15] | ++ (++ = pIC50 5.00-<5.50) | +++ (+++ = pIC50 ≥5.50) |
| CC(NC(=O)c1cc2cc(Cl)ccc2[nH]1)c1nc(-c2ccccc2)no1 (stereo not drawn) [Compound 121] | − (− = pIC50 <4.50) | +++ (+++ = pIC50 ≥5.50) |
| O=C(NC1(C2CCOCC2)CC1)c1cc2cc(Cl)ccc2[nH]1 [Compound 144] | + (+ = pIC50 4.50-<5.00) | +++ (+++ = pIC50 ≥5.50) |
| Cc1cc(C2(NC(=O)c3cc4cc(Cl)ccc4[nH]3)CC2)no1 [Compound 217] | − (− = pIC50 <4.50) | +++ (+++ = pIC50 ≥5.50) |
| CC(C)Oc1ccc2[nH]c(C(=O)NC3(c4ccccc4)CC3)cc2c1 [Compound 261] | − (− = pIC50 <4.50) | +++ (+++ = pIC50 ≥5.50) |
| CC(NC(=O)c1cc2cc(Cl)ccc2[nH]1)C1CCCCC1 (stereo not drawn) [Compound 69] | ++ (++ = pIC50 5.00-<5.50) | +++ (+++ = pIC50 ≥5.50) |
| O=C(NC1Cc2ccccc2C1)c1cc2cc(Cl)ccc2[nH]1 [Compound 116] | ++ (++ = pIC50 5.00-<5.50) | − (− = pIC50 <4.50) |
| COc1ccc(C2(NC(=O)c3cc4cc(Cl)ccc4[nH]3)CC2)cc1 [Compound 150] | ++ (++ = pIC50 5.00-<5.50) | +++ (+++ = pIC50 ≥5.50) |
| O=C(NC1(c2ccccc2)CCC1)c1cc2cc(Cl)ccc2[nH]1 [Compound 132] | + (+ = pIC50 4.50-<5.00) | +++ (+++ = pIC50 ≥5.50) |
| O=S(=O)(NCc1cc2cc(F)ccc2[nH]1)c1ccccc1 [Compound 57] | + (+ = pIC50 4.50-<5.00) | − (− = pIC50 <4.50) |
| Cc1cc(C(C)NC(=O)c2cc3cc(C#N)ccc3[nH]2)no1 (stereo not drawn) [Compound 235] | − (− = pIC50 <4.50) | +++ (+++ = pIC50 ≥5.50) |
| Cc1ccc(C(C)NC(=O)c2cc3ccccc3[nH]2)o1 (stereo not drawn) [Compound 11] | ++ (++ = pIC50 5.00-<5.50) | ++ (++ = pIC50 5.00-<5.50) |

Further lines, results first:

| TDO cellular assay (A172) pIC50 [1] | IDO cellular assay (SKOV3) pIC50 [2] | Structure (SMILES) |
| --- | --- | --- |
| − (− = pIC50 <4.50) | +++ (+++ = pIC50 ≥5.50) | N#Cc1ccc2[nH]c(C(=O)NC3(c4ccc(F)cc4)CC3)cc2c1 [Compound 137] |
| − (− = pIC50 <4.50) | + (+ = pIC50 4.50-<5.00) | Cn1cc(C2(NC(=O)c3cc4ccc(C(F)F)cc4[nH]3)CC2)cn1 [Compound 206] |
| − (− = pIC50 <4.50) | + (+ = pIC50 4.50-<5.00) | O=C(NC1(c2ccccc2)COC1)c1cc2ccc(C(F)F)cc2[nH]1 [Compound 218] |
| − (− = pIC50 <4.50) | +++ (+++ = pIC50 ≥5.50) | CC(NC(=O)c1cc2cc(Cl)ccc2[nH]1)C1CCOCC1 (stereo not drawn) [Compound 103] |
| − (− = pIC50 <4.50) | +++ (+++ = pIC50 ≥5.50) | Cc1nc(C2(NC(=O)c3cc4cc(C#N)ccc4[nH]3)CC2)co1 [Compound 226] |
| − (− = pIC50 <4.50) | + (+ = pIC50 4.50-<5.00) | CC(NC(=O)c1cc2cc(Cl)ccc2[nH]1)c1ccc(N2CCN(C)CC2)cc1 (stereo not drawn) [Compound 95] |
| − (− = pIC50 <4.50) | +++ (+++ = pIC50 ≥5.50) | Cn1cc(C2(NC(=O)c3cc4cc(Cl)cc(F)c4[nH]3)CC2)cn1 [Compound 205] |
| + (+ = pIC50 4.50-<5.00) | ++ (++ = pIC50 5.00-<5.50) | CC(NC(=O)c1cc2cc(Cl)ccc2[nH]1)c1cnoc1 (stereo not drawn) [Compound 97] |
| − (− = pIC50 <4.50) | +++ (+++ = pIC50 ≥5.50) | O=C(NC1(c2ccccc2)CC1)c1cc2c(F)c(Cl)ccc2[nH]1 [Compound 194] |
| − (− = pIC50 <4.50) | ++ (++ = pIC50 5.00-<5.50) | O=C(NCc1ccc(F)c(Cl)c1)c1cc2ccccc2[nH]1 [Compound 32] |
| − (− = pIC50 <4.50) | +++ (+++ = pIC50 ≥5.50) | N#Cc1ccc2[nH]c(C(=O)NC3(c4ccccc4)CC3)cc2c1 [Compound 136] |
| +++ (+++ = pIC50 ≥5.50) | − (− = pIC50 <4.50) | CC(NC(=O)c1cc2cc(C(N)=O)ccc2[nH]1)c1ccccc1 (stereo not drawn) [Compound 88] |
| − (− = pIC50 <4.50) | + (+ = pIC50 4.50-<5.00) | COc1ccc(CNC(=O)c2cc3cc(F)ccc3[nH]2)cc1 [Compound 29] |
| − (− = pIC50 <4.50) | +++ (+++ = pIC50 ≥5.50) | Cc1c(C2(NC(=O)c3cc4cc(Cl)ccc4[nH]3)CC2)cnn1C [Compound 198] |
| ++ (++ = pIC50 5.00-<5.50) | +++ (+++ = pIC50 ≥5.50) | COc1ccc(C(C)NC(=O)c2cc3cc(Cl)ccc3[nH]2)cc1 (stereo not drawn) [Compound 70] |
| − (− = pIC50 <4.50) | ++ (++ = pIC50 5.00-<5.50) | O=C(NC1CCCc2ccccc21)c1cc2ccccc2[nH]1 (stereo not drawn) [Compound 66] |
| − (− = pIC50 <4.50) | +++ (+++ = pIC50 ≥5.50) | Cn1cc(C2(NC(=O)c3cc4cc(Cl)ccc4[nH]3)CCC2)cn1 [Compound 215] |
| − (− = pIC50 <4.50) | + (+ = pIC50 4.50-<5.00) | O=C(NCc1ccc(F)cc1)c1cc2cc(Cl)ccc2[nH]1 [Compound 28] |
| +++ (+++ = pIC50 ≥5.50) | +++ (+++ = pIC50 ≥5.50) | CC(Cc1ccccc1)NC(=O)c1cc2cc(Cl)ccc2[nH]1 (stereo not drawn) [Compound 86] |
| + (+ = pIC50 4.50-<5.00) | +++ (+++ = pIC50 ≥5.50) | CC(NC(=O)c1cc2cc(Cl)ccc2[nH]1)c1cnn(-c2ccccc2F)c1 (stereo not drawn) [Compound 115] |
| + (+ = pIC50 4.50-<5.00) | +++ (+++ = pIC50 ≥5.50) | C[C@@H](NC(=O)c1cc2ccc(F)cc2[nH]1)c1ccccc1 [Compound 44] |
| + (+ = pIC50 4.50-<5.00) | +++ (+++ = pIC50 ≥5.50) | O=C(NC1(c2ccc(Cl)cc2)CC1)c1cc2cc(Cl)ccc2[nH]1 [Compound 148] |
| + (+ = pIC50 4.50-<5.00) | +++ (+++ = pIC50 ≥5.50) | Cn1cc(C2(NC(=O)c3cc4cc(C(F)(F)F)ccc4[nH]3)CC2)cn1 [Compound 168] |
| − (− = pIC50 <4.50) | + (+ = pIC50 4.50-<5.00) | CC(NC(=O)c1cc2cc(Cl)ccc2[nH]1)c1ncc[nH]1 (stereo not drawn) [Compound 96] |
| − (− = pIC50 <4.50) | ++ (++ = pIC50 5.00-<5.50) | CC(NC(=O)c1cc2cc(C(F)(F)F)ccc2[nH]1)c1cnn(C)c1 (stereo not drawn) [Compound 157] |
| + (+ = pIC50 4.50-<5.00) | ++ (++ = pIC50 5.00-<5.50) | CC(NC(=O)c1cc2cc(Cl)ccc2[nH]1)C1CC1 (stereo not drawn) [Compound 94] |
